How the values were obtained:
[1] = cited from earlier work
[2] = systemic, delivered orally, humans; cited from earlier work
[3] = Release of cargo from lipid-coated DNA-gel nanoparticles (data not shown); assay type: physicochemical; conditions: lipid-coated DNA-gel particles ~200 nm
[4] = system: lineage−Sca-1+c-kit+ progenitor cells; test: Reconstitution by hematopoietic progenitor cell grafts in lethally irradiated recipients; assay type: in vivo; conditions: 1.6 ng TWS119 at the time of transplantation
Experimental: FIGS. 14A-D. Hematopoietic progenitor cells (referred to in the Figure as HSCs) carrying GSK-3β inhibitor-loaded nanoparticles reconstitute recipient animals with rapid kinetics following bone marrow transplants without affecting multilineage differentiation potential. (A, B) Engraftment kinetics of luciferase-transgenic HSC grafts in lethally-irradiated nontransgenic syngeneic recipients. Mice were treated with a single bolus injection of the GSK-3β inhibitor TWS119 (1.6 ng) on the day of transplantation, an equivalent TWS119 dose encapsulated in HSC-attached DNA-gel nanoparticles, or no exogenous agent. Transplanted mice were imaged for whole-body bioluminescence every 7 days for 3 weeks. Shown are representative IVIS images (A) and whole animal photon counts (B) for 9 mice total/treatment condition. (C) Percentage of donor-derived cells in recipient mice 2 weeks after transplantation of GFP^+ HSCs with or without TWS119. *P<0.001. (D) Average frequency of donor-derived GFP^+ B cells, T cells, and myeloid cells in recipient mice 3 months after transplantation. 5 mice/group were analyzed.
We further examined the utility of this delivery approach in the context of hematopoietic stem cell transplantations. We treated C57Bl/6 F-luc-transgenic mice or C57Bl/6 GFP-transgenic mice with 5-fluorouracil (5-FU, Sigma Aldrich) (150 mg/kg, i.p) and euthanized them 3 days later. […]

[5] = Kinetics of protein release from lipid-coated PLGA particles in vitro (ELISA of supernatant); assay type: physicochemical; conditions: complete RPMI 10% FCS, 37° C., by the end of the incubation period (~1 week)
Experimental: FIGS. 5A-C. Protein and TLR ligand incorporation in lipid-coated PLGA nanoparticles. (A) Confocal image (left) and cryoEM image (right) of lipid-coated nanoparticles loaded with fluorescent ova in the particle cores. Note that the particles in the confocal image are artificially aggregated here by drying on a coverslip for imaging. (B) Kinetics of IL-15 release from lipid-coated PLGA particles in vitro in complete medium at 37° C. (C) Bone marrow-derived DCs were incubated with 3 mg/mL lipid-nanoparticles containing 1 mole % or 10 mole % MPLA in the lipid coating, equivalent amounts of soluble MPLA (30 μg/mL or 3 μg/mL), or soluble LPS (1 μg/mL) as a positive control. At 24 hrs, the maturation status of the cells was assessed by flow cytometry analysis of cell surface MHC II, CD80, and CD40 (not shown).
Ova however is a model globular protein and as such it was chosen to illustrate the behavior of other proteins such as interleukin-15 (IL-15) superagonist molecules which can be used to support ACT T cells. […] The kinetics of IL-15 release from the particles was determined by incubating the particles in complete RPMI medium containing 10% FCS at 37° C. with gentle agitation and taking aliquots of the supernatant at staggered timepoints for ELISA analysis of cytokine content. […]

[6] = systemically injected; cited from earlier work

For `CC(C)Cn1cnc2c(N)nc3ccccc3c21` [imiquimod], the half-life following injection [1] is listed as ~2 h and the toxicity [2] is listed as “dose-limiting toxicity”.
In the case of `Nc1cccc(-c2cc3c(Oc4cccc(O)c4)ncnc3[nH]2)c1` [TWS119], the “period of slow release from DNA-gel nanoparticles” value [3] is reported as 7 days and the “engraftment kinetics / proliferative reconstitution of progenitor cell grafts” value [4] is reported as “did not significantly alter”.
For “IL-15: Interleukin-15, cytokine; encapsulated alone in lipid-coated PLGA particles in b217”, the encapsulated cytokine released [5] is listed as ~80% and the half life [6] is listed as ~1 h.
